From patent publication US7196084B2, “Cdc25 phosphatase inhibitors” (Societe de Conseils de Recherches et d'Applications …, priority 2000, dated 2007)

Columns and labels:
cdc25-A = molecular target: T1, cdc25-A (Homo sapiens, UniProt P30304); settings: read-out: inhibition constant (Ki) on cdc25-A; cited from earlier work
T1 sequence (P30304 1-524): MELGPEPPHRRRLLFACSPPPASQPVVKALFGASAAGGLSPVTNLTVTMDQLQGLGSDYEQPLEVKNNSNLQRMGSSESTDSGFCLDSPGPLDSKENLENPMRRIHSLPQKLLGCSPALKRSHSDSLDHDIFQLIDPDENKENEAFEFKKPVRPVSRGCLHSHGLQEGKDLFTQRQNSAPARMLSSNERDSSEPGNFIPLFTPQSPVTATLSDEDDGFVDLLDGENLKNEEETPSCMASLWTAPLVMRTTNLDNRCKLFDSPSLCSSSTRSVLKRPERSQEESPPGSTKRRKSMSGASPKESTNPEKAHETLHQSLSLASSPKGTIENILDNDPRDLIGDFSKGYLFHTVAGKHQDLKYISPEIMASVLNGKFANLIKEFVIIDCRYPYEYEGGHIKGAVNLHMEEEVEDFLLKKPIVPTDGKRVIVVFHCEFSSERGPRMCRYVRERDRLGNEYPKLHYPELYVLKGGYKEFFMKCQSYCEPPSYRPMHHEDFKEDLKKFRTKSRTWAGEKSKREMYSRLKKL

cdc25-B2 = molecular target: T2, cdc25-B2 (Homo sapiens, UniProt P30305); settings: read-out: inhibition constant (Ki) on cdc25-B2; cited from earlier work
T2 sequence (P30305 1-539 isoform P30305-3): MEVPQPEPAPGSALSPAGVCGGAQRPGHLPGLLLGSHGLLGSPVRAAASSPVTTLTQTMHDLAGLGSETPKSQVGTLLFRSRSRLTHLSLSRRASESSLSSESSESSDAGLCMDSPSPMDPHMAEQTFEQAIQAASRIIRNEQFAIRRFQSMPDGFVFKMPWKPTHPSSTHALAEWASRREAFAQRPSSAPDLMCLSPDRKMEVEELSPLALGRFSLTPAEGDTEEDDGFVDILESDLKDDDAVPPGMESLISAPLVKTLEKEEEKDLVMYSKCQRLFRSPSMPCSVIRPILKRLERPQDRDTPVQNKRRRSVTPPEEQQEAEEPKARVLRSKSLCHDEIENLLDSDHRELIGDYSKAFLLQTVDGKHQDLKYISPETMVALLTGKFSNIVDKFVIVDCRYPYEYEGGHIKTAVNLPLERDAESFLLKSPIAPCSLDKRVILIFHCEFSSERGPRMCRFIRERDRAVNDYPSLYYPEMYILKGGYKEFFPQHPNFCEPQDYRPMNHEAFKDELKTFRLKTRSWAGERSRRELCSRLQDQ

cdc25-C = molecular target: T3, cdc25-C (Homo sapiens, UniProt P30307); settings: read-out: inhibition constant (Ki) on cdc25-C; cited from earlier work
T3 sequence (P30307 1-473): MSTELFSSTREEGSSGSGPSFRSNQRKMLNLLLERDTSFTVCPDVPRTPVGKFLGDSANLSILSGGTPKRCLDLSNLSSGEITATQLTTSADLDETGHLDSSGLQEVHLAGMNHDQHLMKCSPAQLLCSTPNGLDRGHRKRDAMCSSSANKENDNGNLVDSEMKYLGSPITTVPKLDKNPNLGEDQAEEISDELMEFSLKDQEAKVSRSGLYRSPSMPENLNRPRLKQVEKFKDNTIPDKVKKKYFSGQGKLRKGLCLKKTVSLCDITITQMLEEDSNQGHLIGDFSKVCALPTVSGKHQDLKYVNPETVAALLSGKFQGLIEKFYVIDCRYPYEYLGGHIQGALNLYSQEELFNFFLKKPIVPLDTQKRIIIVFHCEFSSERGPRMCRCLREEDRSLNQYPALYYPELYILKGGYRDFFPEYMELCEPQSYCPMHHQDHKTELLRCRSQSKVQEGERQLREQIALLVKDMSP

[1] = system: phosphorylation of cdc2 in the Mia PaCa-2 line (endogenous cdc25C phosphatase of human cells); assay: Measurement of the state of cdc2 phosphorylation (western blot); type: cell-based; settings: Mia-Paca2 cells treated with increasing concentrations, sampling 24 hours later, FIG. 1; menadione as reference inhibitor
Procedure: b) Measurement of the State of cdc2 Phosphorylation:
This relates to showing that the enzymatic activity of cdc25-C phosphatase is inhibited in vivo […] in the presence of selected inhibitors.
The cells of the Mia PaCa2 line are seeded at a rate of 450 000 cells in 10 cm Petri dishes in Dulbecco's modified Eagle medium completed with 10% foetal calf serum. 48 hours later, the cells are treated for 1 hour with the compound to be tested or menadione at 100 μM (reference inhibitor). The medium is renewed after washing with PBS. 24 hours after the cells are scraped and lysed in the lysis buffer (Hepes 50 mM pH 7.5; NaCl 10 mM; Triton X100 1%; glycerol 10%; MgCl2 5 mM; EDTA 1 mM; sodium orthovanadate 1 mM; protease inhibitor cocktail 1836170 Roche Diagnostics). After centrifugation at 13 000 rpm for 10 minutes at 4° C., the concentration of proteins is determined in the supernatant (Bio-Rad DC Protein assay kit) and adjusted to 10 μg. The load buffer concentrated 5 times (Tris HCl 125 mM pH 7.4; SDS 10%; glycerol 50%; bromophenol blue 0.025%; β-mercaptoethanol 7%) is added to the samples. The samples are heated for 10 minutes at 100° C. The samples are deposited in a volume of 40 μl on Tris/Glycine 12% gels (BioRad). Migration occurs over 1 hour at 180 V. The proteins are transferred onto a nitrocellulose membrane (Hybond C, Amersham) under semi-dry conditions. […]

[2] = system: Mia-PaCa2 (human pancreatic cancer cells); assay: Anti-proliferative activity, WST1 colorimetric test, Mia-PaCa2; type: cell-based; settings: MIA PaCa-2, treated for 96 hours, read-out: IC50 on the cell proliferation of Mia-Paca2 lines
Procedure: (§1) c) Characterization of the Anti-proliferative Activity:
(§2) By way of example, the effect of a treatment on two lines of human Mia-Paca2 and DU145 cells with compounds of Examples 1–5 described previously will be studied. The cell lines DU145 (human prostate cancer cells) and Mia-PaCa2 (human pancreatic cancer cells) were acquired from the American Tissue Culture Collection (Rockville, Md., USA). The cells placed in 80 μL of Dulbecco's modified Eagle medium (Gibco-Brl, Cergy-Pontoise, France) completed with 10% foetal calf serum inactivated by heating (Gibco-Brl, Cergy-Pontoise, France), 50000 units/l of penicillin and 50 mg/l streptomycin (Gibco-Brl, Cergy-Pontoise, France), and 2 mM of glutamine (Gibco-Brl, Cergy-Pontoise, France) were seeded on a 96-well plate on day 0. The cells were treated on day 1 for 96 hours with increasing concentrations of each of the compounds to be tested up to 50 μg/ml. At the end of this period, quantification of cell proliferation is evaluated by a colorimetric test based on the cleavage of the tetrazolium salt WST1 by mitochondrial dehydrogenases in viable cells leading to the formation of formazan (Boehringer Mannheim, Meylan, France). These tests are carried out in duplicate with 8 determinations per concentration tested. For each compound to be tested, the values included in the linear part of the sigmoid were retained for linear regression analysis and used to estimate the inhibitory concentration IC50. The products are solubilized in dimethylsulphoxide (DMSO) at 10^−2 M and finally used in culture with 0.5% DMSO.

[3] = system: DU145 (human prostate cancer cells); assay: Anti-proliferative activity, WST1 colorimetric test, DU145; type: cell-based; settings: DU-145, treated for 96 hours, read-out: IC50 on the cell proliferation of DU-145 lines
Procedure: as §1, §2

Row | SMILES | IC50 [2] [µM] | melting point [°C] | IC50 [3] [µM] | other results
1 | CC1=C(SCCO)C(=O)c2ccccc2C1=O [Cpd5] | – | – | – | Ki (cdc25-A): 15 µM; Ki (cdc25-B2): 1.7 µM; Ki (cdc25-C): 1.3 µM
2 | COc1cc(N(C)C)cc(CN(C)CCc2ccc([N+](=O)[O-])cc2)c1O [Example 1, 4-(dimethylamino)-2-methoxy-6-({methyl[2-(4-nitrophenyl)ethyl]-amino}methyl)phenol] | ≤ 100 | 91 to 93 | – | increase of the phosphorylated form of cdc2 [1]: growing increase of the phosphorylated form of cdc2
3 | CCOP(=O)(OCC)Oc1ccc(CCNC(=O)c2cc3cc(O)ccc3cc2O)cc1 [Example 13, diethyl 4-{2-[(3,7-dihydroxy-2-naphthoyl)amino]ethyl}phenylphosphate] | ≤ 100 | 192 to 194 | ≤ 100 | –
4 | NS(=O)(=O)c1ccc(CCNC(=O)c2cc3cc(O)ccc3cc2O)cc1 [Example 14, N-{2-[4-(aminosulphonyl)phenyl]ethyl}-3,7-dihydroxy-2-naphthamide] | ≤ 100 | – | ≤ 100 | –
5 | O=C(NCCc1ccc(NS(=O)(=O)c2cccc(C(F)(F)F)c2)cc1)c1cc2cc(O)ccc2cc1O [Example 22, 3,7-dihydroxy-N-{2-[4-({[3-(trifluoromethyl)phenyl]sulphonyl}amino)phenyl]ethyl}-2-naphthamide] | ≤ 100 | – | ≤ 100 | –
6 | CN(C)c1ccccc1NC(=O)CCCCc1ccc(/N=C(/N)c2cccs2)cc1.Cl [Example 30, 5-(4-{[(1E)-amino(2-thienyl)methylidene]amino}phenyl)-N-[2-(dimethylamino)phenyl]pentanamide hydrochloride] | ≤ 100 | 145 to 148 | – | –
7 | Cc1ccc(S(=O)(=O)N2CCN(C(=O)c3cc4cc(O)ccc4cc3O)CC2)cc1 [Example 31, 3-({4-[(4-methylphenyl)sulphonyl]piperazin-1-yl}carbonyl) naphthalene-2,6-diol] | ≤ 100 | 135 to 137 | – | –
8 | CC1=CC(=O)c2ccccc2C1=O [menadione, reference compound] | – | – | – | increase of the phosphorylated form of cdc2 [1]: increase
